Test results reported in patent US8822517B2, “Arylosulfonamides for the treatment of CNS diseases” (Adamed SP. Z O.O., priority 2010, dated 2014).
Like-named read-outs stand apart in the source and are kept apart here.

Experiments:
[1] = target: T1, serotonine transporter (SERT) receptor (Homo sapiens, UniProt P31645); test: Binding assay SERT (h), [3H]imipramine, CHO cells; settings: read-out: SERT [%]
T1 construct: expressed in transfected cells; host or cells: CHO cells
Outline: (§1)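 Compounds were screened at 1×10^−6 M, and bound radioactivity was measured by scintillation counting. Specific binding equals total binding minus nonspecific binding obtained with an excess of unlabelled ligand.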

[2] = target: dopaminergic D2 receptor (Homo sapiens, UniProt P14416); test: Cellular functional assay, dopaminergic D2 receptor (agonism/antagonism); format: cell-based
Chain of dopaminergic D2 receptor (P14416 whole entry): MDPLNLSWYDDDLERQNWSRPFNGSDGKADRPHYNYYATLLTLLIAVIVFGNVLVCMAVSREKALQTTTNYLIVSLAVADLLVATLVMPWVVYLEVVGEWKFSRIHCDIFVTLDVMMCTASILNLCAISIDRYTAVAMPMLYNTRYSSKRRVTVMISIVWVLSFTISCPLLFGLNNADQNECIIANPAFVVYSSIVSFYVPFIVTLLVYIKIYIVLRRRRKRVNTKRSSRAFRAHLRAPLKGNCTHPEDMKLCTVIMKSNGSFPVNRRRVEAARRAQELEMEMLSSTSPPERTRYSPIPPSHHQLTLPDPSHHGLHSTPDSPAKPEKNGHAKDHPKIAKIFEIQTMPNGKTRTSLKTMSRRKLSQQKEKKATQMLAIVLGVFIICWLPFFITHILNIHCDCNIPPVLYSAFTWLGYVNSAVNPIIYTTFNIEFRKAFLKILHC
Experimental: (§2) The compounds were tested at the concentration of 1×10^−6M.
(§3) In the Tables ag refers to agonism, and antag to antagonism).

[3] = target: T2, dopaminergic D3 receptor (Homo sapiens, UniProt P35462); test: Cellular functional assay, dopaminergic D3 receptor (agonism/antagonism); format: cell-based
T2 sequence (P35462 whole entry): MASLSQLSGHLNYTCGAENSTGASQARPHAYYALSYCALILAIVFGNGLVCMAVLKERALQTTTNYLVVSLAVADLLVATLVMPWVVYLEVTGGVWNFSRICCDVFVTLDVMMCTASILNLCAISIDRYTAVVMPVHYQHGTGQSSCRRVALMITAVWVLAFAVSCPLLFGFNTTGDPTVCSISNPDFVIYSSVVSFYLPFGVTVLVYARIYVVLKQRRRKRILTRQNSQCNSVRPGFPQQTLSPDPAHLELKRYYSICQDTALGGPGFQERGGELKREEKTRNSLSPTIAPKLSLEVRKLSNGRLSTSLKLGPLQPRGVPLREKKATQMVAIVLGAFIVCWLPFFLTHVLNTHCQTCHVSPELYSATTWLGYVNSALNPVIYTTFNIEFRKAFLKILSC
Experimental: as §2, §3

[4] = target: T3, adrenergic α1A receptor (Homo sapiens, UniProt P35348); test: Cellular functional assay, adrenergic α1A receptor (agonism/antagonism); format: cell-based; settings: for activation at 1 µM: read-out: α1A -ag [%]; for inhibition at 1 µM: read-out: α1A -antag. [%]
T3 sequence (P35348 1-466): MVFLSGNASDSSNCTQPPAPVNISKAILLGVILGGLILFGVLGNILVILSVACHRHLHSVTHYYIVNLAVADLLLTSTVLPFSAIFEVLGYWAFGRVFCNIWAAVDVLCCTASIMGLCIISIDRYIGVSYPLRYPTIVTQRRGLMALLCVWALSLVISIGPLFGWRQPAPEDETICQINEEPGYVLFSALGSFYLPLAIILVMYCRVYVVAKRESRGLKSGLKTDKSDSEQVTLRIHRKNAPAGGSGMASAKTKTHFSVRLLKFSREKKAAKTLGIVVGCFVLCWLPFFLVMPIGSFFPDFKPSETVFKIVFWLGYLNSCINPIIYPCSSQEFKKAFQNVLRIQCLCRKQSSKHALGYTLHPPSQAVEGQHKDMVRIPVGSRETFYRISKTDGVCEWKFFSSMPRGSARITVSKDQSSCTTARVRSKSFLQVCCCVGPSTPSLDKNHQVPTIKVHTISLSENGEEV
Experimental: […]. The compounds were tested at the concentration of 1×10^−6M.
Conditions and methodology (by reference to the literature) of cellular functional assays are given in Table 13 and the tests results for representative compounds are given in Table 14 (dopaminergic receptor D2), in Table 15 (dopaminergic receptor D3), in Table 16 (serotoninergic receptor 5-HT1A), in Table 17 (serotoninergic receptor 5-HT2A), in Table 18 (serotoninergic receptor 5-HT6), in Table 19 (serotoninergic receptor 5-HT7), in Table 20 (adrenergic α1 receptor), in Table 21 (adrenergic α2C receptor), in Table 22 (histaminergic H1 receptor) and in Table 23 (serotoninergic 5-HT2C receptor). In the Tables ag refers to agonism, and antag to antagonism).

[5] = target: T4, adrenergic α2C receptor (Homo sapiens, UniProt P18825); test: Cellular functional assay, adrenergic α2C receptor (agonism/antagonism); format: cell-based; settings: for activation at 1 µM: read-out: α2C −ag [%]; for inhibition at 1 µM: read-out: α2C −antag. [%]
T4 sequence (P18825 1-462): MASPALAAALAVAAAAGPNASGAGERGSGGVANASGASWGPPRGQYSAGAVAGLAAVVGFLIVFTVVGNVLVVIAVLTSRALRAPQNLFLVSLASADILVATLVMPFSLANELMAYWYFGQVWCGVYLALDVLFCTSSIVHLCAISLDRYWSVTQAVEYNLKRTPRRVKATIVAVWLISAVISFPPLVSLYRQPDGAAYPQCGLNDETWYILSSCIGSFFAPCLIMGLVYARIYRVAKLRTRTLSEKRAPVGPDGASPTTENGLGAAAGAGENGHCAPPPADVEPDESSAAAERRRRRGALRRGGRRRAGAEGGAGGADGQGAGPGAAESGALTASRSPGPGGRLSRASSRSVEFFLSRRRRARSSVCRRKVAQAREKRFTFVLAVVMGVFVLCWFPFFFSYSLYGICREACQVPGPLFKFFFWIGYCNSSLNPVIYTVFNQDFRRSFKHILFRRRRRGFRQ
Experimental: as §2, §3

[6] = target: T5, histaminergic H1 receptor (Homo sapiens, UniProt P35367); test: Cellular functional assay, histaminergic H1 receptor (agonism/antagonism); format: cell-based; settings: for activation at 1 µM: read-out: H1 -ag [%]; for inhibition at 1 µM: read-out: H1 -antag. [%]
T5 sequence (P35367 whole entry): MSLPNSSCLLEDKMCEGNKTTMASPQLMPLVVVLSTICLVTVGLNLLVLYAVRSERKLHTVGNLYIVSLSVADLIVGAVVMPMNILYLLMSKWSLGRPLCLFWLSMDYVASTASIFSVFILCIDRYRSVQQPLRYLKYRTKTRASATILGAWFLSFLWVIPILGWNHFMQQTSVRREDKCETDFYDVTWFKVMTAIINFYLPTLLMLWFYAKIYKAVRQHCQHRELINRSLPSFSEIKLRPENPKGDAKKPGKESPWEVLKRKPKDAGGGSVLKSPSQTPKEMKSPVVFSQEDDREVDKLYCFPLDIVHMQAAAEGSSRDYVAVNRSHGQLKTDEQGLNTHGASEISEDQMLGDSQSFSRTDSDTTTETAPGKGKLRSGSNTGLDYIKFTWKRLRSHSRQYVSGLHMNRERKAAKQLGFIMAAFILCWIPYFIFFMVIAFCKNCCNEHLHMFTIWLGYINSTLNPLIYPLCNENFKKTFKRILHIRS
Experimental: as §2, §3

[7] = target: T2, dopaminergic D3 receptor; test: Binding assay D3 (h), [3H]methyl-spiperone, CHO cells; parameters: expressed in transfected cells; host or cells: CHO cells; settings: read-out: D3 [%]
Outline: as §1

[8] = target: T6, serotoninergic 5-HT1A receptor (Homo sapiens, UniProt P08908); test: Binding assay 5-HT1A (h), [3H]8-OH-DPAT, HEK-293 cells; parameters: expressed in transfected cells; host or cells: HEK-293 cells; settings: read-out: 5-HT1A
T6 sequence (P08908 1-422): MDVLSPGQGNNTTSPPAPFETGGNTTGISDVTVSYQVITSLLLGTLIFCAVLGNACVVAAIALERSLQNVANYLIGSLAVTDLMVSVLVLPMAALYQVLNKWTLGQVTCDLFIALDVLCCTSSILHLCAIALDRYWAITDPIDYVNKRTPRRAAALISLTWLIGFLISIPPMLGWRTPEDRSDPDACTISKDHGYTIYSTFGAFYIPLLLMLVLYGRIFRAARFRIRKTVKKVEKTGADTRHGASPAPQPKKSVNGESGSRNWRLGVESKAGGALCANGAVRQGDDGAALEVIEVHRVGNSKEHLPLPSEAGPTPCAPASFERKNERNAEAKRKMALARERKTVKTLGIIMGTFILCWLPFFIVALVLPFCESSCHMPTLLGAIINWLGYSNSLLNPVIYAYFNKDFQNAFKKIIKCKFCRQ
Outline: as §1

[9] = target: T5, histaminergic H1 receptor; test: Binding assay H1 (h), [3H]pyrilamine, HEK-293 cells; parameters: expressed in transfected cells; host or cells: HEK-293 cells; settings: read-out: H1 [%]
Outline: as §1

[10] = HEK293; agonist effect, percent of control specific agonist response (3 μM dopamine for control); 1×10^−6 M; D2S (h), HEK-293 cells; read-out: D2-ag [%]
[11] = HEK293; read-out: D2-antag. [%]
[12] = agonist effect, percent of control specific agonist response (300 nM dopamine for control); 1×10^−6 M; D3 (h), CHO cells; read-out: D3-ag [%]
[13] = agonist effect, percent of control specific agonist response, compounds tested at 1×10^−6M

T1 sequence (P31645 whole entry): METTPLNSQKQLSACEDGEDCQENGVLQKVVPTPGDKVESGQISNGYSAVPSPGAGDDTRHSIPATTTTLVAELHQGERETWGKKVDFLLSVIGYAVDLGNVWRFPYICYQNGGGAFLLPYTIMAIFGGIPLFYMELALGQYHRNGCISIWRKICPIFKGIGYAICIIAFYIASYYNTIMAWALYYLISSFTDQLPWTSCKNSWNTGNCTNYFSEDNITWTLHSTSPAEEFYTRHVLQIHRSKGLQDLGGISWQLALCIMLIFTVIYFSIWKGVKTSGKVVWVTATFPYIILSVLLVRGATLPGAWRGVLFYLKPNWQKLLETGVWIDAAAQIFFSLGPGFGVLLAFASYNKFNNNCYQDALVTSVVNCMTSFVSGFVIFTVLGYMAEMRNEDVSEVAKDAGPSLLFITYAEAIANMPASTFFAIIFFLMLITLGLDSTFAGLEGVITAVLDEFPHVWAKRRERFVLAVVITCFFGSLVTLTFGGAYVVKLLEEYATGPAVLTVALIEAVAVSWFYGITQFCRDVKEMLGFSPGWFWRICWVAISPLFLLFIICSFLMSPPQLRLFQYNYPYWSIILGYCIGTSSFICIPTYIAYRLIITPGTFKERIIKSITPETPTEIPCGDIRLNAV

SMILES | inhibition at 1 µM [1] [%] | activation at 1 µM [2, 10] [%] | inhibition at 1 µM [2, 11] [%] | inhibition at 1 µM ([3]; CHO; read-out: D3-antag. [%]) [%] | activation at 1 µM [3, 12] [%] | activation at 1 µM [4, 13] [%] | inhibition at 1 µM [4] [%] | activation at 1 µM [5, 13] [%] | inhibition at 1 µM [5] [%] | activation at 1 µM [6, 13] [%] | inhibition at 1 µM [6] [%] | inhibition at 1 µM [7] [%] | inhibition at 1 µM [8] [%] | inhibition at 1 µM [9] [%] | also measured
O=S(=O)(NCCCCN1CCN(c2nsc3ccccc23)CC1)c1cccc2ccccc12 [Compound 1, N-(4-(4-(1,2-Benzothiazol-3-yl)piperazin-1-yl)butyl)naphthalene-1-sulphonamide] | 49 | -1 | 95 | 49 | -17 | 0 | 100 | -9 | 7 | 0 | 51 | 96 | 96 | 91 | –
O=S(=O)(NCCCCN1CCN(c2nsc3ccccc23)CC1)c1ccc2ccccc2c1 [Compound 2, N-(4-(4-(1,2-Benzothiazol-3-yl)piperazin-1-yl)butyl)naphthalene-2-sulphonamide] | 69 | – | – | – | – | – | 100 | – | 30 | – | 48 | 100 | 99 | 94 | activation at 1 µM ([2]; HEK293, read-out: D2-ag [%]): 2%; inhibition at 1 µM ([2]; HEK293, read-out: D2-antag. [%]): 97%; activation at 1 µM ([3]; CHO, read-out: D3-ag [%]): -15%; inhibition at 1 µM ([3]; CHO, read-out: D3-antag. [%]): 81%; activation at 1 µM [4]: 0%; activation at 1 µM [5]: -8%; activation at 1 µM [6]: -1%
Cc1cccc(S(=O)(=O)NCCCN2CCN(c3nsc4ccccc34)CC2)c1 [Compound 7, N-(3-(4-(1,2-Benzothiazol-3-yl)piperazin-1-yl)propyl)-3-methylbenzenesulphonamide] | 88 | 0 | 91 | 66 | -21 | 0 | 100 | -6 | 2 | 1 | 70 | 97 | 99 | 93 | –
O=c1[nH]c2ccc(S(=O)(=O)NCCCN3CCN(c4nsc5ccccc45)CC3)cc2o1 [Compound 8, N-(3-(4-(1,2-Benzothiazol-3-yl)piperazin-1-yl)propyl)-2-oxo-3H-1,3-benzoxazole-6-sulphonamide] | 63 | 7 | 85 | 73 | -24 | 0 | 100 | -16 | 1 | 1 | 98 | 97 | 100 | 97 | –
O=S(=O)(NCCCCN1CCN(c2noc3ccccc23)CC1)c1ccc2cc(Cl)ccc2c1 [Compound 79, N-[4-[4-(1,2-Benzoxazol-3-yl)piperazin-1-yl]butyl]-6-chloro-naphthalene-2-sulphonamide] | 3 | 3 | 77 | 77 | -9 | – | – | 7 | 22 | 0 | 57 | 96 | 84 | 96 | –
O=S(=O)(NCCCCN1CCN(c2noc3ccccc23)CC1)c1ccc(-c2ccccc2)cc1 [Compound 283, N-[4-[4-(1,2-Benzoxazol-3-yl)piperazin-1-yl]butyl]-4-phenylbenzenesulphonamide] | 24 | – | – | 58 | -10 | 0 | 100 | 2 | 25 | 0 | 41 | 101 | 89 | 96 | –
